Columns and labels:
CCRF-CEM = assay: CellTiterGlo cell viability assay, initial screening; type: cell-based
Procedure: (§1) In vitro viability assays were performed to assess the effects of compounds on cell viability in 7 selected cell lines over 72 hr using the CellTiterGlo (CTG, Promega-G7573) assay. The tests were performed in duplicates with treatment of compounds at 9 points, 3.16 folds titration in 96 well plates over ˜72 hr. The compound starting concentrations were […]. Cell viability assay using CellTiterGlo in 96-well plate were performed. The compound treatment was 72 hrs, under standard growth conditions, and in duplicate. Compounds were dissolved to 40 mM with thawed […]. Compounds were serially diluted at 3.16 fold in thawed DMSO, and warmed to 37° C. before being dissolved in media (2 μl+200 μl). After compounds were dissolved in media (media was also warmed to 37° C.). Media containing compounds were warmed to 37° C. in incubator and then compounds in media were added to cell plates (50 μl+50 μl), in duplicates. The compounds final concentrations were from […] to 19.9 nM. All compound solubilities were checked and recorded again, then the plates were transferred to CO2 tissue culture incubator immediately and incubated for 3 days. DMSO final concentration is 0.5%.

KG-1 [1] = assay: as above; type: cell-based
Procedure: as §1

MOLT-4 [2] = assay: as above; type: cell-based
Procedure: as §1

HepG2 = assay: as above; type: cell-based; conditions: HepG2; 72 hr; Table II
Procedure: as §1

K562 [3] = assay: as above; type: cell-based; conditions: 72 hr, Table II
Procedure: as §1

MCF-7 = assay: as above; type: cell-based
Procedure: as §1

HL-60 [4] = assay: as above; type: cell-based
Procedure: as §1

CEM (TdT+ve) = assay: ATP ViaLight plus cell viability assay; type: cell-based, Human; conditions: for (FD) fold difference compared to control: CEM
Procedure: (§2) Certain compounds of the invention were subjected to further studies to test the cytotoxic activity of certain compounds of the invention and also to measure their activity against 4 haematological cancer cell lines • TdT positive CEM (Human ALL) • TdT negative K562 (Human CML) • TdT negative H1-60 (Human ANLL) • RL (CRL-2261) non-HD lymphoma • The concentrations of the active metabolite dATP (Cordycepin triphosphate) in these cell lines was also measured. • The cytotoxic activity and the intracellular 3′-dATP concentrations were also studied in the presence of hENT1, Adenosine Kinase (AK) and Adenosine Deaminase pharmacological inhibitors in CEM and RL cancer cell lines. Said inhibitors that mimic known cancer resistance mechanisms. Methods Cell Culture
(§3) HL-60, K562, CCRF-CEM and RL cell lines were cultured in RPMI-1640 medium (Sigma Aldrich, UK), which were supplemented with 10% Fetal Bovine Serum (FBS) (PAA Laboratories), 1% amphotericin B (5.5 ml) and 1% penicillin/streptomycin (5.5 ml) (PAA Laboratories) and grown in flasks at 37° C. incubator with 5% CO2.
(§4) The amount of ATP was used as a measurement of cell number and cell viability. ATP ViaLight™ plus assay kit (Lonza, USA: Product No. LT07-121) to detect ATP in cells treated in luminescence compatible 96 well plates (initial concentration of cells was 1×10^4 cells/well) with cordycepin and ProTides at concentrations of: 0, 0.1, 0.5, 1, 5 and 10 μM, followed by incubation for 72 hours at 37° C. incubator with 5% CO2. For inhibitor studies, 10 μM of NBTI or 1 μM EHNA or A-134974 was added and left for 5 minutes before adding the drugs (see section 5 for inhibitor details).
(§5) After incubation, 50 μl of cell lysis reagent was added to the 96 well plates to release the intracellular ATP, followed by 100 μl of ATP monitoring reagent (AMR). The luminescent values of each well were determined using FLUOstar OPTIMA microplate reader (BMG Labtech) which convert ATP into light by using luciferase enzyme. Therefore, the amount of luminescence produced was directly proportional to the amount of ATP.
(§6) Cell lines were treated in the same way as described above but before treatment with drugs, a number of inhibitors were added: • 1) Nitrobenzylthioinosine (NBTI) (Sigma-Aldrich, St. Louis, MO, product # N2255) blocks nucleoside transporters • 2) EHNA hydrochloride (Sigma-Aldrich, St. Louis, MO, product # E114) blocks adenosine deaminase • 3) Adenosine kinase inhibitor A-134974 dihydrochloride hydrate (Sigma-Aldrich, St. Louis, MO, product # A2846): blocks adenosine kinase
(§7) The dose-response curves of cytotoxicity of the drugs was determined using non-linear regression analysis of percentage cell viability versus concentration and EC50 values were obtained. The intracellular assay was conducted in five replicates for each condition. Intracellular assay was determined using paired t test (two-tailed) analysis of 3′ ATP/ATP concentration and p-values were obtained. For all the analysis, Prism Software program (GraphPad Software) was used and Microsoft Powerpoint® 2013 was used to plot the results.

RL (CRL-2261) = assay: ATP ViaLight plus cell viability assay; type: cell-based
Procedure: as §2, §3, §4, §5, §6, §7

K562 [5] = assay: ATP ViaLight plus cell viability assay; type: cell-based, Human; conditions: K562
Procedure: as §2, §3, §4, §5, §7

HL-60 [6] = assay: ATP ViaLight plus cell viability assay; type: cell-based, Human; conditions: HL-60
Procedure: as §2, §3, §4, §5, §7

SW620 = assay: Solid tumour and haematological malignancy assay (CellTiterGlo); type: cell-based; conditions: SW620; 72 hr
Procedure: (§8) In vitro viability assay were performed to assess the effects of compounds on cell viability in selected cell lines over 72 hr using the CellTiterGlo (CTG, Promega-G7573) assay. The tests were performed in duplicates with treatment of compounds at 9 points, 3.16 folds titration in 96 well plates over ˜72 hr. The compound starting concentrations were 198 mM. Cell viability assay using CellTiterGlo in 96-well plate were performed. Compound treatment 72 hrs, standard growth conditions, duplicates. Compounds were dissolved to 40 mM with thawed […]. Compounds were serially diluted at 3.16 fold in thawed DMSO, and warmed to 37° C. before being dissolved in media (2 μl+200 μl). After compounds were dissolved in media, media containing compounds were warmed to 37° C. in incubator and then compounds in media were added to cell plates (50 μl+50 μl) in duplicates. The compounds' final concentrations were from 198M to 19.9 nM. All compound solubilities were checked and recorded again, then the plates were transferred to CO2 tissue culture incubator immediately and incubated for 3 days. DMSO final concentration is 0.5%.

Z138 = assay: as above; type: cell-based; conditions: 72 hr
Procedure: as §8

BxPC-3 = assay: as above; type: cell-based; conditions: 72 hr
Procedure: as §8

Jurkat = assay: as above; type: cell-based; conditions: 72 hr
Procedure: as §8

KG-1 [7] = assay: as above; type: cell-based
Procedure: as §8, with “The tests were performed in duplicates with treatment of compounds at 9 points, 3.16 folds titration in 96 well plates over ˜72 hr. The compound starting concentrations were 198 mM.” left out, “Compounds were serially diluted at 3.16 fold in thawed DMSO, and warmed to 37° C. before being dissolved in media (2 μl+200 μl).” left out, “The compounds' final concentrations were from 198M to 19.9 nM.” left out

CCRFCEM = assay: as above; type: cell-based; conditions: for Emax: Homo sapiens, CCRF-CEM, 72 h, read-out: MI %
Procedure: as §8, with “The tests were performed in duplicates with treatment of compounds at 9 points, 3.16 folds titration in 96 well plates over ˜72 hr. The compound starting concentrations were 198 mM.” left out, “Compounds were serially diluted at 3.16 fold in thawed DMSO, and warmed to 37° C. before being dissolved in media (2 μl+200 μl).” left out, “The compounds' final concentrations were from 198M to 19.9 nM.” left out

HT29 = assay: as above; type: cell-based
Procedure: as §8, with “The tests were performed in duplicates with treatment of compounds at 9 points, 3.16 folds titration in 96 well plates over ˜72 hr. The compound starting concentrations were 198 mM.” left out, “Compounds were serially diluted at 3.16 fold in thawed DMSO, and warmed to 37° C. before being dissolved in media (2 μl+200 μl).” left out, “The compounds' final concentrations were from 198M to 19.9 nM.” left out

MOLT-4 [8] = assay: as above; type: cell-based; conditions: Homo sapiens, MOLT-4, 72 h, read-out: MI %
Procedure: as §8

NCI-H929 = assay: as above; type: cell-based; conditions: Homo sapiens, NCI-H929, 72 h, read-out: MI %
Procedure: as §8

RL = assay: as above; type: cell-based; conditions: Homo sapiens, 72 h, read-out: MI %
Procedure: as §8

MCF7 = assay: as above; type: cell-based; conditions: Homo sapiens, MCF7, 72 h, read-out: MI %
Procedure: as §8, with “The tests were performed in duplicates with treatment of compounds at 9 points, 3.16 folds titration in 96 well plates over ˜72 hr. The compound starting concentrations were 198 mM.” left out, “Compounds were serially diluted at 3.16 fold in thawed DMSO, and warmed to 37° C. before being dissolved in media (2 μl+200 μl).” left out, “The compounds' final concentrations were from 198M to 19.9 nM.” left out

CCCCCOC(=O)[C@H](CC(C)C)NP(=O)(OC[C@@H]1C[C@@H](O)[C@H](n2cnc3c(N)ncnc32)O1)Oc1cccc2ccccc12 (mixture of isomers) [D, (2S)-pentyl 2-(((((2S,4R,5R)-5-(6-amino-9H-purin-9-yl)-4-hydroxytetrahydrofuran-2-yl)methoxy)(naphthalen-1-yloxy)phosphoryl)amino)-4-methylpentanoate]
M.I. %: maximum percentage inhibition of cell viability (CCRF-CEM; CCRF-CEM, 72 hr, Table II): 100% | M.I. %: maximum percentage inhibition of cell viability (KG-1 [1]; KG-1, 72 hr, Table II): 100% | M.I. %: maximum percentage inhibition of cell viability (MOLT-4 [2]; MOLT-4, 72 hr, Table II): 100% | M.I. %: maximum percentage inhibition of cell viability (HepG2): 99% | M.I. %: maximum percentage inhibition of cell viability (K562 [3]): 99% | M.I. %: maximum percentage inhibition of cell viability (MCF-7; MCF-7, 72 hr, Table II): 100% | M.I. %: maximum percentage inhibition of cell viability (HL-60 [4]; HL-60, 72 hr, Table II): 100% | (FD) fold difference compared to Cordycepin = Cordycepin IC50/ProTide IC50 (CEM (TdT+ve); CEM (TdT+ve)): 3 | (FD) fold difference compared to Cordycepin = Cordycepin IC50/ProTide IC50 (RL (CRL-2261)): 5 | (FD) fold difference compared to Cordycepin = Cordycepin IC50/ProTide IC50 (K562 [5]): 3 | (FD) fold difference compared to Cordycepin = Cordycepin IC50/ProTide IC50 (HL-60 [6]): 2

Nc1ncnc2c1ncn2[C@@H]1O[C@H](COP(=O)(NCC(=O)OCc2ccccc2)Oc2ccccc2)C[C@H]1O (stereo partly drawn) [C, Benzyl 2-(((((2S,4R,5R)-5-(6-amino-9H-purin-9-yl)-4-hydroxytetrahydrofuran-2-yl)methoxy)(phenoxy)phosphoryl)amino)acetate]
M.I. %: maximum percentage inhibition of cell viability (CCRF-CEM; CCRF-CEM, 72 hr, Table II): 94% | M.I. %: maximum percentage inhibition of cell viability (KG-1 [1]; KG-1, 72 hr, Table II): 65% | M.I. %: maximum percentage inhibition of cell viability (MOLT-4 [2]; MOLT-4, 72 hr, Table II): 93% | M.I. %: maximum percentage inhibition of cell viability (HepG2): 59% | M.I. %: maximum percentage inhibition of cell viability (K562 [3]): 92% | M.I. %: maximum percentage inhibition of cell viability (MCF-7; MCF-7, 72 hr, Table II): 87% | M.I. %: maximum percentage inhibition of cell viability (HL-60 [4]; HL-60, 72 hr, Table II): 82% | MI % (SW620): 100% | MI % (Z138): 100% | MI % (BxPC-3): 99% | MI % (Jurkat): 100% | MI % (KG-1 [7]; KG-1, 72 hr): 102% | MI % (CCRFCEM; CCRFCEM, 72 hr): 100% | MI % (HT29; HT29, 72 hr): 99%

CCCCCOC(=O)[C@H](CC(C)C)NP(=O)(OC[C@@H]1C[C@H](O)[C@H](n2cnc3c(N)nc(OC)nc32)O1)Oc1cccc2ccccc12 (stereo partly drawn) [Compound M]
Emax (CCRFCEM): 100%

Nc1ncnc2c1ncn2[C@@H]1O[C@H](CO)C[C@H]1O [Cordycepin, 3′-deoxyadenosine, reference compound]
M.I. %: maximum percentage inhibition of cell viability (CCRF-CEM; human, 72 h): 12% | M.I. %: maximum percentage inhibition of cell viability (KG-1 [1]; human, 72 h): 78% | M.I. %: maximum percentage inhibition of cell viability (MOLT-4 [2]; human, 72 h): 52% | M.I. %: maximum percentage inhibition of cell viability (HepG2): 66% | M.I. %: maximum percentage inhibition of cell viability (K562 [3]): 88% | M.I. %: maximum percentage inhibition of cell viability (MCF-7; human, 72 h): 78% | M.I. %: maximum percentage inhibition of cell viability (HL-60 [4]; human, 72 h): 88% | (FD) fold difference compared to control (CEM (TdT+ve); AK): 3 | (FD) fold difference compared to control (CEM (TdT+ve); EHNA): −16 | (FD) fold difference compared to control (CEM (TdT+ve); NBTI): 5 | MI % (BxPC-3): 22% | MI % (Jurkat): 20% | (FD) fold difference compared to control (RL (CRL-2261); AK): 4 | (FD) fold difference compared to control (RL (CRL-2261); EHNA): 2 | (FD) fold difference compared to control (RL (CRL-2261); NBTI): 2

COc1nc(N)c2ncn([C@@H]3O[C@H](COP(=O)(N[C@@H](C)C(=O)OCc4ccccc4)Oc4cccc5ccccc45)C[C@H]3O)c2n1 (stereo partly drawn) [K, (2S)-benzyl 2-((((2S,4R,5R)-5-(6-amino-2-methoxy-9H-purin-9-yl)-4-hydroxytetrahydrofuran-2-yl)methoxy)(naphthalen-1-yloxy)phosphorylamino)propanoate]
Emax (MOLT-4 [8]): 104% | Emax (NCI-H929): 102% | Emax (RL): 104% | Emax (MCF7): 99% | Emax (KG-1 [7]; Homo sapiens, KG-1, 72 h, read-out: MI %): 99% | Emax (CCRFCEM): 102% | Emax (HT29; Homo sapiens, HT-29, 72 h, read-out: MI %): 98%

Source: patent publication US12054510B2, “2′ and/or 5′ amino-acid ester phosphoramidate 3′-deoxy adenosine derivatives as anti-cancer compounds” (Nucana plc, priority 2014, dated 2024)
